# Reference: US20230398051A1, “Anti-Microbial Skin-Care Composition Comprising Beta-Glucan and Natural Oil” (LANTMÄNNEN OATS AB, priority 2020, published 2023)
# Assays:
# [1] = test system: L. monocytogenes; assay: Log reduction according to EN 1276; assay type: cell-based
# [2] = test system: S. typhimurium; assay: Log reduction according to EN 1276; assay type: cell-based
# [3] = test system: spores; conditions: cited from earlier work
# [4] = test system: bacteria, viruses; conditions: 0.5% hydrogen peroxide; cited from earlier work
# [5] = test system: E. hirae; assay: Log reduction according to EN 1276; assay type: cell-based
# [6] = test system: S. aureus; assay: Log reduction according to EN 1276; assay type: cell-based
# From the text: (§1) As shown in the Examples herein, the skin-care composition is active against bacteria and due to its content of hydrogen peroxide and lactate/lactic it is contemplated to be active against viruses as well, i.e. functioning as an anti-microbial composition. It has been shown that a synergistic effect between hydrogen peroxide and lactic acid in bacteria such as E. coli, P. aeruginosa, E. hirae, S. aureus, L. monocytogenes and S. typhimurium, see the following tables: […]
# [7] = test system: E. coli; assay: Log reduction according to EN 1276; assay type: cell-based
# From the text: as §1
# [8] = test system: P. aeruginosa; assay: Log reduction according to EN 1276; assay type: cell-based
# [9] = test system: bacteria; conditions: cited from earlier work
compound,measurement,setting,value
"OO [1% H2O2, hydrogen peroxide]",Log reduction according to EN 1276,[1],0.6
same,Log reduction according to EN 1276,[2],0.5
"CC(O)C(=O)O (stereo not shown) [1% LA, pH 3, lactic acid]",Log reduction according to EN 1276,[1],2.2
same,Log reduction according to EN 1276,[2],>5
OO [hydrogen peroxide],concentration that will work against most spores,[3],3%
same,time in which bactericidal and virucidal activity was demonstrated,[4],1 min
"CC(O)C(=O)O (stereo not shown) [1% LA, lactic acid]",Log reduction according to EN 1276,[1],3.8
same,Log reduction according to EN 1276,[2],>5
"OO [3% H2O2, hydrogen peroxide]",Log reduction according to EN 1276,[5],0.1
same,Log reduction according to EN 1276,[6],<1
same,Log reduction according to EN 1276,[7],>5
same,Log reduction according to EN 1276,[8],>5
CC(O)C(=O)O (stereo not shown) [lactic acid],concentration regarded as bactericidal,[9],≥ 0.25 % w/w
